Test system: EoL-1 (human eosinophilic leukaemia cell line) cells
Experiment: TNF-α-induced cytokine release, non-differentiated EoL-1 cells (NO PMA) (Luminex)
Type: cell-based
Design: key to Fractalkine (NO PMA), p of decrement / IL-1α (NO PMA), p of decrement / IL-1β (NO PMA), p of decrement / IL-1ra (NO PMA), p of decrement / IL-5 (NO PMA), p of decrement / IL-7 (NO PMA), p of decrement / IL-8 (NO PMA), p of decrement / IP-10 (NO PMA), p of decrement / MCP-1 (NO PMA), p of decrement / MIP-1β (NO PMA), p of decrement / VEGF (NO PMA), p of decrement: ns = non significant
Conditions: 24 h
Procedure: EoL-1 (human eosinophilic leukaemia cell line) cells (Saito et al., 1985; Mayumi, 1992) were maintained in RPMI-1640 medium with L-glutamine supplemented with 10% (v/v) FBS at 37° C. in a humidified atmosphere with 5% CO2. Where indicated, 24 h before the experiment 25 ng/mL PMA ((phorbol 12-myristate 13-acetate, purchased from Sigma Aldrich) was added to the medium to induce eosinophil granulation and differentiation (Ohtsu et al., 1993; Zimmermann et al., 2000).
Half-million cells were aliquoted per point in a 24 well plate; each experiment was performed in triplicate and carried out in parallel with eosinophils differentiated and non differentiated with PMA (25 ng/mL, 24 h). Cells were suspended in low serum medium (RPMI-1640, 0.1% (v/v) FBS). TNF-α was used to induce cytokine secretion as previously described by Steube et al. (2000), and the net release was obtained by comparison to the basal (non-TNF-α treated). In the first experiment we evaluated the concentration and time relation between TNF-α stimulation and cytokine release. Therefore, 5, 10, and 25 ng/mL of TNF-α was administered to the cells at 0, ½, 1, 2, 3, 6, 12 and 24 h (data not shown). An aliquot of 150 μL of supernate was collected for cytokines' analysis. […] Differentiated and non-differentiated EoL-1 cells were exposed from 0.1 to 2.3 mM levocabastine ([…]Levocabastine 0.05% solution eye drops containing cyclodextrins, without benzalkonium chloride), and aliquots of the supernates were collected after 12 and 24 h. The content of cytokines at time zero was estimated by treating the cells with 400 nM calcimycin (A-23187), which is a cytolytic agent that frees all the mediators from the cytoplasmic compartment. In addition, for each experiment we tested the effect of the vehicle, which was added to the wells in a concentration equal to the maximum amount used for drug dilution.
Samples (supernates 12 and 24 h) in triplicate were analyzed using Luminex 200™ (Luminex, Austin, Tex.) and Beadview software v1.0 (Upstate Cell Signaling Solutions, Temecula, Calif.).
All data are presented as mean±SEM for the indicated number of experiments. Statistical significance was determined by Newman-Keuls test after ANOVA using GraphPad Prism (version 3.0; GraphPad Software Inc., San Diego, Calif., USA). P-values<0.05 were considered to be significant.

[1] = TNF-α 5 ng + Levocabastine 2 mM vs TNF-α
[2] = TNF-α 10 ng + Levocabastine 2 mM vs TNF-α
[3] = TNF-α 20 ng + Levocabastine 2 mM vs TNF-α
[4] = TNF-α 5, 10, 20 ng + Levocabastine 2 mM vs TNF-α

C[C@@H]1CN([C@H]2CC[C@](C#N)(c3ccc(F)cc3)CC2)CC[C@]1(C(=O)O)c1ccccc1 [Levocabastine, levocabastine]
ns: IL-8 (NO PMA), p of decrement (Levocabastine 2 mM vs TNF-α) | IL-10 (NO PMA), p of decrement (Levocabastine 2 mM vs TNF-α) | IP-10 (NO PMA), p of decrement (Levocabastine 2 mM vs TNF-α) | MIP-1β (NO PMA), p of decrement (Levocabastine 2 mM vs TNF-α) | TGF-α (NO PMA), p of decrement (Levocabastine 2 mM vs TNF-α) | GM-CSF (NO PMA), p of decrement [1] | IL-1β (NO PMA), p of decrement [1] | IL-5 (NO PMA), p of decrement [1] | IL-6 (NO PMA), p of decrement [1] | IL-7 (NO PMA), p of decrement [1] | IL-8 (NO PMA), p of decrement [1] | IL-10 (NO PMA), p of decrement [1] | MCP-1 (NO PMA), p of decrement [1] | GM-CSF (NO PMA), p of decrement [2] | IL-1β (NO PMA), p of decrement [2] | IL-5 (NO PMA), p of decrement [2] | IL-6 (NO PMA), p of decrement [2] | IL-7 (NO PMA), p of decrement [2] | IL-8 (NO PMA), p of decrement [2] | IL-10 (NO PMA), p of decrement [2] | MCP-1 (NO PMA), p of decrement [2] | TGF-α (NO PMA), p of decrement [2] | GM-CSF (NO PMA), p of decrement [3] | IL-1β (NO PMA), p of decrement [3] | IL-5 (NO PMA), p of decrement [3] | IL-6 (NO PMA), p of decrement [3] | IL-7 (NO PMA), p of decrement [3] | IL-8 (NO PMA), p of decrement [3] | IL-10 (NO PMA), p of decrement [3] | MCP-1 (NO PMA), p of decrement [3] | Fractalkine (NO PMA), p of decrement (TNF-α vs Lev 0.1 mM) | IL-1ra (NO PMA), p of decrement (TNF-α vs Lev 0.1 mM) | IL-1α (NO PMA), p of decrement (TNF-α vs Lev 0.1 mM) | IL-1β (NO PMA), p of decrement (TNF-α vs Lev 0.1 mM) | IL-5 (NO PMA), p of decrement (TNF-α vs Lev 0.1 mM) | IL-7 (NO PMA), p of decrement (TNF-α vs Lev 0.1 mM) | IL-8 (NO PMA), p of decrement (TNF-α vs Lev 0.1 mM)
Increase: MCP-1 (NO PMA), p of decrement (Levocabastine 2 mM vs TNF-α) | MIP-1α (NO PMA), p of decrement (Levocabastine 2 mM vs TNF-α) | RANTES (NO PMA), p of decrement (Levocabastine 2 mM vs TNF-α)
P < 0.001: VEGF (NO PMA), p of decrement (Levocabastine 2 mM vs TNF-α) | IL-12p40 (NO PMA), p of decrement [1] | VEGF (NO PMA), p of decrement [1] | IL-12p40 (NO PMA), p of decrement [2] | VEGF (NO PMA), p of decrement [2] | IL-12p40 (NO PMA), p of decrement [3] | VEGF (NO PMA), p of decrement [3]
increase of cytokine secretion: Fractalkine (NO PMA), p of decrement [4] | G-CSF (NO PMA), p of decrement [4] | IL-1α (NO PMA), p of decrement [4] | IP-10 (NO PMA), p of decrement [4] | MIP-1α (NO PMA), p of decrement [4] | MP-1β (NO PMA), p of decrement [4] | RANTES (NO PMA), p of decrement [4]
P < 0.01: IL-12p40 (NO PMA), p of decrement (Levocabastine 2 mM vs TNF-α) | IL-1ra (NO PMA), p of decrement [1] | IL-1ra (NO PMA), p of decrement [3]
P < 0.05: TGF-α (NO PMA), p of decrement [1] | IL-1ra (NO PMA), p of decrement [2] | TGF-α (NO PMA), p of decrement [3]

From patent US20130289070A1, “Use of Levocabastine for Modulating Generation of Pro-Inflammatory Cytokines” (Bausch & Lomb Incorporated, priority 2007, published 2013)
